# Values joined by “and” are separate entries in the source; they are usually repeats but may differ in a detail not shown here. Equal entries are not always repeated. Where two headings read alike, the source gives them in different places. Non-standard residues stand in square brackets, D forms with d. Residues, ends and D or L forms follow the SMILES beside them. 2Abz = Nc1ccccc1C(=O)O
# Assays:
# Format in all cases: cell-based
# E. faecalis ATCC 29212 = settings: E. faecalis ATCC 29212
# Method: (§1) The minimum inhibitory concentration (MIC) of the peptides was determined by the broth microdilution technique, according to the Clinical and Laboratory Standards Institute (CLSI) guidelines, as previously described. Briefly, bacterial strains were incubated in BHI broth at 37 °C until they reached the exponential growth phase, and inocula were adjusted to 5 × 10^6 CFU/mL using calibration curves. Serial dilutions of the peptides to be evaluated in 96-well plates were made in 90 µL of Mueller Hinton broth at concentrations ranging from 200 to 6.25 µg/mL, and 10 µL of the inoculum adjusted to 5 × 10^6 CFU/mL was added. Finally, the plates were incubated at 37 °C for 24 h, and the absorbance at 620 nm was read. As a negative control, CMH, distilled water, and 10 µL of inoculum were used; for the positive control, vancomycin was used for Gram-positive strains and ciprofloxacin for Gram-negative strains at the MICs dictated by the CLSI; as a technical control, CMH with peptone water was used, and for the growth control, CMH was used with 10 µL of inoculum.
# (§2) To determine the minimum bactericidal concentration (MBC), the 96-well plates where the MIC was determined were used as a starting point. From these, an aliquot of the controls and those wells where no apparent bacterial growth was observed were spotted onto trypticase soy agar plates. The plates were incubated at 37 °C for 24 h, and the reading was taken, identifying the lowest concentration of the peptide where there was no bacterial growth as the MBC.
# [1] = test system: K. pneumoniae ATCC 700603; settings: K. pneumoniae ATCC 700603
# Method: as §1, §2
# P. aeruginosa ATCC 27853 = settings: P. aeruginosa ATCC 27853
# Method: as §1, §2
# E. coli ATCC 25922 = settings: E. coli ATCC 25922
# Method: as §1, §2
# [2] = test system: S. aureus clinical isolate 11719; settings: S. aureus clinical isolate 11719
# Hemolysis assay = test: Hemolysis assay
# Method: Whole blood was collected into EDTA tubes and centrifuged at 2500 rpm for 10 min. The plasma and buffy coat were removed, and the erythrocytes were washed three times with 0.9% saline to yield a 4% cell suspension. In 96-well plates, 100 µL of peptide dilutions (6.25–200 µg/mL) were prepared in triplicate, and 100 µL of the erythrocyte suspension was added (final hematocrit 2%). Plates were incubated at 37 °C for 2 h, and then centrifuged again at 2500 rpm for 10 min. A 100 µL aliquot of the supernatant was transferred to a fresh plate, and absorbance was measured at 450 nm. Saline and 1× Triton X-100 served as the negative and positive controls, respectively. Hemolysis (%) was calculated as follows: %hemolysis=treatment absorbance−saline absorbance/1×triton absorbance−saline absorbance
# [3] = MTT cytotoxicity assay in HeLa cells; settings: human; HeLa cells, MTT; read-out: Cytotoxic Activity (IC50)
# Method: MTT assays were conducted in HeLa cells to evaluate the effect of fluorescent probe incorporation on the in vitro cytotoxic activity of the parent non-conjugated peptides. The cytotoxic effect of peptides 1, Abz-1 RhB-1, 2, and RhB-2 in HeLa cells was peptide concentration-dependent, with the highest anticancer activity observed at 200 µg/mL. Incorporation of 2-Abz and RhB at the N-terminal end reduced cytotoxic activity, while the binding of 2-Abz at the C-terminal end or FAM at the N-terminal end drastically diminished anticancer activity (Table 4).
# [4] = test system: E. coli clinical isolate 1004 (susceptible); settings: E. coli clinical isolate 1004
# Method: (§3) E. coli isolates 1004 (susceptible), 129797 (resistant), and 301755 (MDR) were selected for evaluation. Isolate 1004 was sensitive to all antibiotics tested. […] These findings identify it as a multidrug-resistant (MDR) strain and an extended-spectrum beta-lactamase (ESBL)-producing bacterium. For S. aureus, isolates 109095, 117719, and 124653 were evaluated. All three were resistant to penicillin, indicating beta-lactamase production mediated by the blaZ gene. Studies have shown that up to 90% of S. aureus isolates worldwide are penicillin-resistant, which implies that this antibiotic is ineffective in infections caused by this pathogen. […] Isolate 124653 was resistant to penicillin, tetracycline, and erythromycin, with the latter belonging to the group of macrolides, antibiotics that inhibit protein synthesis through interaction with the 50S […] subunit. For E. faecalis three isolates were selected: strains 213 (sensitive to all the antibiotics tested), strain 82 (resistant to streptomycin), and strain 179 (resistant to gentamicin). These clinical isolates were selected to assess the antimicrobial activity of the peptide RWQWRWQWR and its analogues conjugated to fluorescent molecules in strains against strains with susceptibility profiles.
# (§4) The analysis of synthesized peptides in ATCC reference strains and susceptible, resistant, and multidrug-resistant (MDR) clinical isolates was performed. The clinical isolates were obtained from the National Cancer Institute collection and were previously identified and antibiogrammed using the VITEK system. Additionally, the strains were characterized by MALDI-TOF. The strains were re-primed onto trypticase soy agar and subsequently preserved in Brain–Heart Infusion (BHI) broth containing 20% glycerol. For the MIC and MBC assays, the strains were reactivated and cultured in BHI until they reached their exponential growth phase.
# as §1, §2
# [5] = test system: clinical isolates of E. coli; settings: stated for all three E. coli clinical isolates
# Method: as §3, §4, §1, §2
# [6] = test system: E. faecalis clinical isolate 179; settings: E. faecalis clinical isolate 179
# Method: as §3, §4, §1, §2
# [7] = test system: E. faecalis clinical isolate 213; settings: E. faecalis clinical isolate 213
# Method: as §3, §4, §1, §2
# [8] = test system: E. faecalis clinical isolate 82; settings: E. faecalis clinical isolate 82
# Method: as §3, §4, §1, §2
# [9] = test system: E. coli clinical isolate 301755 (MDR); settings: E. coli clinical isolate 301755
# Method: as §3, §4, §1, §2
# [10] = test system: S. aureus clinical isolate 124653; settings: S. aureus clinical isolate 124653
# Method: as §3, §4, §1, §2
# [11] = test system: S. aureus clinical isolate 109095; settings: S. aureus clinical isolate 109095
# Method: as §3, §4, §1, §2
# [12] = test system: E. coli clinical isolate 129797 (resistant); settings: E. coli clinical isolate 129797
# Method: as §3, §4, §1, §2
smiles,measurement,setting,value
"N=C(N)NCCC[C@H](NC(=O)[C@H](Cc1c[nH]c2ccccc12)NC(=O)[C@H](CCC(N)=O)NC(=O)[C@H](Cc1c[nH]c2ccccc12)NC(=O)[C@H](CCCNC(=N)N)NC(=O)[C@H](Cc1c[nH]c2ccccc12)NC(=O)[C@H](CCC(N)=O)NC(=O)[C@H](Cc1c[nH]c2ccccc12)NC(=O)[C@@H](N)CCCNC(=N)N)C(=O)Nc1ccccc1C(N)=O [1-Abz, RWQWRWQWR-(2-Abz)] (H-RWQWRWQWR[2Abz]-NH2)",Minimal bactericidal concentration (MBC),E. faecalis ATCC 29212,> 125 µM
same,Minimal inhibitory concentration (MIC),E. faecalis ATCC 29212,125 µM
same,Minimal bactericidal concentration (MBC),[1],125 µM
same,Minimal inhibitory concentration (MIC),[1],125 µM
same,Minimal bactericidal concentration (MBC),P. aeruginosa ATCC 27853,> 125 µM
same,Minimal inhibitory concentration (MIC),P. aeruginosa ATCC 27853,125 µM
same,Minimal bactericidal concentration (MBC),E. coli ATCC 25922,62 µM
same,Minimal inhibitory concentration (MIC),E. coli ATCC 25922,62 µM
same,Minimal bactericidal concentration (MBC),[2],125 µM
same,Minimal inhibitory concentration (MIC),[2],125 µM
same,hemolysis at 2 h,"Hemolysis assay; at 200 µg/mL (highest tested concentration), 2 h, 37 °C, read-out: hemolysis",1.5%
same,hemolysis at 2 h,"Hemolysis assay; at the lowest MIC concentration, read-out: Percentage of hemolysis",0.9%
same,IC50,[3],> 200 µg/mL and > 125 µM
same,Minimal bactericidal concentration (MBC),[4],125 µM
same,Minimal inhibitory concentration (MIC),[4],62 µM
same,MBC,[5],125 µM
same,Minimal bactericidal concentration (MBC),[6],> 125 µM
same,Minimal inhibitory concentration (MIC),[6],> 125 µM
same,Minimal bactericidal concentration (MBC),[7],> 125 µM
same,Minimal inhibitory concentration (MIC),[7],> 125 µM
same,Minimal bactericidal concentration (MBC),[8],> 125 µM
same,Minimal inhibitory concentration (MIC),[8],> 125 µM
same,Minimal bactericidal concentration (MBC),[9],125 µM
same,Minimal inhibitory concentration (MIC),[9],62 µM
same,Minimal bactericidal concentration (MBC),[10],> 125 µM
same,Minimal inhibitory concentration (MIC),[10],125 µM
same,Minimal bactericidal concentration (MBC),[11],125 µM
same,Minimal inhibitory concentration (MIC),[11],125 µM
same,Minimal bactericidal concentration (MBC),[12],125 µM
same,Minimal inhibitory concentration (MIC),[12],62 µM
